Literature values, collected in patent publication US10059681B2, “Disubstituted maleic anhydrides with altered kinetics of ring closure” (Arrowhead Madison Inc., priority 2011, dated 2018).

Tests used:
[1] = Eberson et al. 1971
[2] = Kirby 1980

O=C(O)c1ccccc1C(=O)O [phthalic acid]
K=k1/k−1 of equilibrium in water toward ring closure [1]: 10^−2

C/C(C(=O)O)=C(\C)C(=O)O [dimethyl maleic acid]
K=k1/k−1 of equilibrium in water toward ring closure [1]: 5.3

CNC(=O)C1=C(C(=O)O)CCCC1
kobs of amine release [2]: 3.5×10^−2
